Experimental data: patent publication US20170182090A1, “Sulfate Salt Solution Laxative Compositions and Methods of Use Thereof” (Braintree Laboratories, Inc., priority 2014, published 2017)
Where two headings read alike, the source gives them in different places.

Legend:
constipation = conditions: in vivo; cited from earlier work
normal volunteers [1] = test: Single dose laxative study in normal volunteers (Example 1, Study 008-211): stool output, BM frequency, time to first BM, stool water; type: in vivo, human
Protocol: This single center study evaluated sulfate salt compositions containing 43.8 millimoles (mmol) sulfate salts (4.2 g total sulfate) or 80 mmol sulfate salts (7.7 g total sulfate) as compared to 10 mg bisacodyl for efficacy to induce a rapid, controlled bowel movement without significant gains or losses of electrolytes. Normal volunteers were given a single dose of laxative in an in-patient setting during which all stool and urine were collected for 24 hours after laxative administration. Efficacy was based on total stool output, bowel movement frequency and time to first bowel movement (BM). A time to first BM of less than three hours was considered ideal. Stool was analyzed to determine the gain or loss of electrolytes. Safety was assessed through the collection of adverse event data and analysis of urine electrolyte composition.
Normal male and female volunteers in this single center study were enrolled to receive a single dose of a sulfate laxative formulations or bisacodyl in an open-label, non-randomized fashion.
Enrolled study subjects received a single dose of a formulation of sulfate salts (dissolved in 120 ml water) and separately, 10 mg bisacodyl, in an open-label, non-randomized fashion. The sulfate preparations, shown below, were compounded by the investigator.
After an eight hour (overnight) fast, study subjects ingested either a single dose of sulfate laxative (containing sodium sulfate and potassium sulfate) or, on a different day, bisacodyl. Sulfate was initially given with a 1:1 molar ratio sodium to potassium at a dose of 43.8 mmole sulfate salts (4.2 g total sulfate) sulfate to three study subjects. The dose was later increased to 80 mmole sulfate salts (7.7 g total sulfate) in one study subject. The 80 mmol sulfate salt formulation was then changed to a 3:1 sodium to potassium molar ratio for the final five study subjects. Bisacodyl was given at a dose of 10 mg.
Stool and urine were collected for 24 hours following laxative ingestion.
(§1) Efficacy was assessed via quantitative measurements of stool weight, bowel movement frequency and time to first BM. All stools were collected, weighed and subsequently analyzed for water and electrolyte composition.

normal volunteers [2] = test: Stool electrolyte output and balance, Example 1; type: in vivo, human; conditions: bisacodyl 10 mg
Protocol: as §1
(§2) Laxative related adverse events were assessed via subject completion of a study specific questionnaire. Specifically, subjects rated their experience with respect to abdominal cramping, abdominal bloating, abdominal pain, gas, nausea, and vomiting. Stool was analyzed for water and electrolyte composition.
Stools collected from study subjects were analyzed for sodium, potassium and sulfate. The data for the 80 mmol sulfate salt formulation and 10 mg bisacodyl are discussed here. The total electrolyte content of the stool was compared with the total electrolyte quantity ingested from the test preparations.
The 80 mmol sulfate salt formulation was administered initially as a formula with a 1:1 sodium to potassium ratio on a molar basis (1 study subject; DC). Based on the stool analysis results from this subject (see below) the formulation was modified to a 3:1 sodium to potassium ratio for the remaining 5 study subjects. Stool electrolyte balance results are summarized below in Tables 6 and 7.

normal volunteers [3] = test: Adverse events and symptoms, Example 1; type: in vivo, human; conditions: bisacodyl 10 mg single dose
Protocol: as §2

normal volunteers [4] = conditions: bisacodyl 20 mg, n=11, cited from earlier work
[5] = bisacodyl 10 mg single dose, mean, n=7
[6] = bisacodyl 10 mg single dose, n=7
[7] = bisacodyl 10 mg, 24 hours following laxative ingestion

SMILES: CCCCC(F)(F)[C@@]1(O)CC[C@H]2[C@@H](CC(=O)[C@@H]2CCCCCCC(=O)O)O1 [Amitiza]
- success rate (constipation): 30%

SMILES: CC(=O)Oc1ccc(C(c2ccc(OC(C)=O)cc2)c2ccccn2)cc1 [Bisacodyl]
- Stool Water (normal volunteers [1]; bisacodyl 10 mg single dose, mean (SD), n=7): 85.8% (2.4)
- BM Frequency (normal volunteers [1]; [5]): 2.9 #/12 hrs
- Stool Output (normal volunteers [1]; [5]): 681 g/12 hrs
- Time to first BM (normal volunteers [1]; [5]): 4.4 h
- Time to first BM (normal volunteers [1]; bisacodyl 10 mg single dose, mean, n=7, listed as bisacodyl): about 5 hrs
- Subjects with BM <3 hrs, number (normal volunteers [1]; [6]): 1
- Subjects with BM <3 hrs, percent (normal volunteers [1]; [6]): (14%)
- Subjects with BM <3 hrs, percent (normal volunteers [1]; bisacodyl 10 mg single dose, n=7, listed as bisacodyl): 14%
- bowel movements, average (normal volunteers [1]; [7]): about 3
- stool, average (normal volunteers [1]; [7]): ~700 grams
- potassium loss (normal volunteers [2]): about 2 grams
- sodium losses (normal volunteers [2]): 1.2 grams
- adverse events, gastrointestinal symptoms (normal volunteers [3]): one bisacodyl volunteer reported severe cramping
- BM Frequency (normal volunteers [4]; mean): 5.4 #/12hrs
- Stool Output (normal volunteers [4]; mean): 757 g/12hrs
- Time to first BM (normal volunteers [4]; mean): 3.2 h
- # with BM <3 hrs, number (normal volunteers [4]): 5
- # with BM <3 hrs, percent (normal volunteers [4]): (45%)
- # with BM <3 hrs, percent (normal volunteers [4]; listed as bisacodyl): 45%

SMILES: C[N+]1(CC2CC2)CC[C@]23c4c5ccc(O)c4O[C@H]2C(=O)CC[C@@]3(O)[C@H]1C5 (stereo partly shown) [Relistor]
- success rate (constipation): 60%

SMILES: C=CCN1CC[C@]23c4c5ccc(O)c4O[C@H]2[C@@H](OCCOCCOCCOCCOCCOCCOCCOC)CC[C@@]3(O)[C@H]1C5.O=C(O)C(=O)O [Movantik]
- success rate (constipation): approximately 45%
